The values below come from patent US8168220B2, “Dosage forms of active ingredients containing hydroxystilbene for treating menopausal complaints” (priority 2005, dated 2012).

Series [1] can be described thus: Dissolving tests with ERr 731 in ethanol and glycerol. Type of series: physicochemical. As for the experimental part:
a) Dissolving Tests with ERr 731® in Ethanol and Glycerol:
Test A: 200 mg of dry extract in 50 ml of glycerol R:
Test B: 200 mg of dry extract in 50 ml of ethanol 30% R:
Test C: 200 mg of dry extract in 50 ml of ethanol 50% R:
Test D: 200 mg of dry extract in 50 ml of ethanol 86% R: […]

Series [2] deals with T1, estrogen receptor β (ERβ) (Homo sapiens, UniProt Q92731).
T1 construct: expressed in transfected cells; host or cells: HEC-1B cells (human endometrial adenocarcinoma; no endogenous ERα or ERβ), transient transfection with DOTAP
The series can be described thus: ERβ/mC3-luciferase transactivation in HEC-1B cells. It is filed as cell-based. As to conditions: 24 hours incubation, FIG. 5. From the text:
They therefore represent a possible way of investigating, in a human and endometrial context, ligand-dependent effects of substances on the transactivation mechanisms in relation to different receptor subtypes and different estrogen-responsive promoters.
An established ERβ/mC3-luciferase system was employed. For this purpose, HEC-1B cells were applied in 24-well plates with a density of 95 000 cells/well (in Dulbecco's modified Essential Medium (DMEM/F12)). The next day, they were cotransfected with an ERβ-containing construct (hERβ/pSG2) and a triple-ERE-containing promoter/luciferase construct (mC3-Luc/pGL2) (Hillisch et al. Dissecting physiological roles of estrogen receptor alpha and beta with potent selective ligands from structure-based design. Mol Endocrinol. 2004 July; 18:1599-609). The transient transfection took place using DOTAP (N-[1-(2,3-dioleoyloxy)]-N,N,N-trimethylammoniumpropane methyl-sulfate, Roth) as described by the manufacturer.
After 24 hours, the cells were treated with appropriate concentrations of the substances or substance mixtures to be investigated. […] The incubation time was 24 hours. The cells were then lysed. The Luciferase Assay® kit (Promega) was used to determine the luciferase activity on the one hand, and the BCA® kit (Sigma) was used to determine the protein content on the other hand. […]

Series [3] can be described thus: pH-dependent solubility of rhaponticin in aqueous solutions. Type of series: physicochemical. As to conditions: acidic pH range (pH 3.4-3.6). From the text:
Use is made of this for its isolation. Since, besides other organic acids, the root in particular has a high content of oxalic acid (⅔ in water-soluble and ⅓ in bound form), this must be neutralized during the isolation in order to prevent the pH drifting into the acidic range and thus to inhibit premature precipitation of the rhaponticin. This is achieved by using calcium oxide. The latter is employed as quicklime solution with a pH of 12.4-12.6.

A short description of series [4]: Pharmacokinetics of ERr 731 ingredients in a subject (plasma LC-MS/MS). Type of series: in vivo, human. Particulars: 40 mg ERr 731 orally (10 tablets). As for the experimental part: Subsequently, 10 ml of blood was taken at various times (as indicated in FIG. 1) and the plasma was obtained by centrifugation.
These plasma samples were processed as follows: 500 μl of plasma were mixed with 25 μl of an internal standard working solution (2.5 ng/μl rhaponticin or rhapontigenin in methanol) and then mixed with 500 μl of isotonic NaCl solution and 2.5 ml of diethyl ether/butanol (9/1; v/v). After shaking and centrifugation (10 minutes at 4600 rpm), about 2 ml of the supernatant were removed and dried under a stream of nitrogen (at 60° C.). The pellet was taken up in 50 μl of methanol. Addition of 200 μl of distilled water was followed by renewed mixing, and 200 μl were pipetted into autosampler tubes (light-protected). 30 μl of the samples were injected for analysis into an LC-MS/MS system (PE Sciex API 3000). Chromatographic separation of the analytes took place on a Phenomenex Polymer X column with a gradient of an ammonium buffer solution and an acetonitrile/methanol mixture as mobile phase.

[5] abbreviates: Test A: 200 mg of dry extract in 50 ml of glycerol R.
Where [6] appears, read: Test B: 200 mg of dry extract in 50 ml of ethanol 30% R.
Where [7] appears, read: Test C: 200 mg of dry extract in 50 ml of ethanol 50% R.
[8] abbreviates: Test D: 200 mg of dry extract in 50 ml of ethanol 86% R.

“Also recorded” adds a separate entry of the source.

T1 sequence (Q92731 whole entry): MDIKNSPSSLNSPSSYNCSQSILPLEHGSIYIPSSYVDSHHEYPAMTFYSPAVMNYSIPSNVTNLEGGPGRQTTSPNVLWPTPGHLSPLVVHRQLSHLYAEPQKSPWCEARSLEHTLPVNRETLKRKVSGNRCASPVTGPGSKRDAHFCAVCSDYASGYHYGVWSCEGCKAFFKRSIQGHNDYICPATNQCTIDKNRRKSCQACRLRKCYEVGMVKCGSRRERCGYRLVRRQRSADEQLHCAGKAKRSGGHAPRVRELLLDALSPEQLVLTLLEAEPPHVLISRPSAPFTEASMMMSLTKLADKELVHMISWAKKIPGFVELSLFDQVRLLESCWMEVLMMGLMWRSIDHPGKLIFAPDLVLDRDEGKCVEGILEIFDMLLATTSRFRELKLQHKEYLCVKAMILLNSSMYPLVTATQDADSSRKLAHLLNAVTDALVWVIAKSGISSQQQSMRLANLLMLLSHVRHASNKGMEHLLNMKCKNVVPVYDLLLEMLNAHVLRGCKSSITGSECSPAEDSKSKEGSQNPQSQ

On to `COc1ccc(C=Cc2cc(O)cc(O[C@@H]3O[C@H](CO)[C@@H](O)[C@H](O)[C@H]3O)c2)cc1` [deoxyrhaponticin], for which the content dissolved was 27.1% deoxyrhaponticin in series [1] (setting [5]), 25.2% deoxyrhaponticin in series [1] (setting [6]), 29.0% deoxyrhaponticin in series [1] (setting [7]) and 29.5% deoxyrhaponticin in series [1] (setting [8]). For the same compound, the “content dissolved relative to theory” value in series [1] (setting [5]) is listed as “(90.6% of theory)”; in series [1] (setting [6]), “(84.2% of theory)”; in series [1] (setting [7]), “(97.0% of theory)”; in series [1] (setting [8]), “(98.7% of theory)”.

As to `COc1ccc(C=Cc2cccc(O)c2)cc1O` [deoxyrhapontigenin, 3′,5-Dihydroxy-4′-methoxystilbene], in series [2], the “activation of ERβ (relative luciferase activity vs DMSO control)” value is listed as “activate the ERβ dose-dependently; also recorded: effective only at higher concentrations”.

`COc1ccc(C=Cc2cc(O)cc(O[C@@H]3O[C@H](CO)[C@@H](O)[C@H](O)[C@H]3O)c2)cc1O` [rhaponticin, 3,3′,5-Trihydroxy-4′-methoxystilbene 3-O-β-D-glucopyranoside]: the content dissolved in series [1] (setting [5]) came to 55.1% rhaponticin; in series [1] (setting [6]) it was 52.2% rhaponticin; in series [1] (setting [7]), 58.8% rhaponticin; in series [1] (setting [8]), 59.8% rhaponticin. The “content dissolved relative to theory” value in series [1] (setting [5]) is “(89.0% of theory)”; in series [1] (setting [6]) it was “(84.3% of theory)”; in series [1] (setting [7]), “(95.0% of theory)”; in series [1] (setting [8]) it was “(96.6% of theory)”. Moreover, the “solubility in aqueous solutions” value in series [3] is listed as “precipitated as yellowish substance”. In addition, the “detection in the blood” value in series [4] is on record as “detected in the blood”. Further, in series [4], the “time of maximum in the blood” value is 3 to 4 h.
